Experimental data taken from ChEMBL document CHEMBL3046329, “Sensitivity to silthiofam, tebuconazole and difenoconazole of Gaeumannomyces graminis var. tritici isolates from China” (Pest Manag Sci, 2012).
In brackets after ≈: the same amount, converted by molar mass.

How the values were obtained:
Type in all cases: functional, organism-based
[1] = system: Gaeumannomyces tritici; test: Antifungal activity against sithiofam-sensitive Gaeumannomyces graminis var. tritici isolate JS08 expressing C2 genetic cluster assessed as reduction in fungal colony diameter after 4 days; details: isolate JS08, 96 h
[2] = system: Gaeumannomyces tritici; test: Antifungal activity against sithiofam-sensitive Gaeumannomyces graminis var. tritici isolate JS03 expressing C1 genetic cluster assessed as reduction in fungal colony diameter after 4 days; details: isolate JS03, 96 h
[3] = system: Gaeumannomyces tritici; test: Antifungal activity against sithiofam-resistant Gaeumannomyces graminis var. tritici isolate JS12 expressing C1 genetic cluster assessed as reduction in fungal colony diameter after 4 days; details: isolate JS12, 96 h
[4] = system: Gaeumannomyces tritici; test: Antifungal activity against sithiofam-sensitive Gaeumannomyces graminis var. tritici isolate JS10 expressing C2 genetic cluster assessed as reduction in fungal colony diameter after 4 days; details: isolate JS10, 96 h
[5] = system: Gaeumannomyces tritici; test: Antifungal activity against sithiofam-resistant Gaeumannomyces graminis var. tritici isolate HN20 expressing C1 genetic cluster assessed as reduction in fungal colony diameter after 4 days; details: isolate HN20, 96 h
[6] = system: Gaeumannomyces tritici; test: Antifungal activity against sithiofam-sensitive Gaeumannomyces graminis var. tritici isolate HN28 expressing C2 genetic cluster assessed as reduction in fungal colony diameter after 4 days; details: isolate HN28, 96 h
[7] = system: Gaeumannomyces tritici; test: Antifungal activity against sithiofam-sensitive Gaeumannomyces graminis var. tritici isolate HN26 expressing C2 genetic cluster assessed as reduction in fungal colony diameter after 4 days; details: isolate HN26, 96 h
[8] = system: Gaeumannomyces tritici; test: Antifungal activity against sithiofam-sensitive Gaeumannomyces graminis var. tritici isolate HN24 expressing C2 genetic cluster assessed as reduction in fungal colony diameter after 4 days; details: isolate HN24, 96 h
[9] = system: Gaeumannomyces tritici; test: Antifungal activity against sithiofam-sensitive Gaeumannomyces graminis var. tritici isolate HN22 expressing C2 genetic cluster assessed as reduction in fungal colony diameter after 4 days; details: isolate HN22, 96 h
[10] = system: Gaeumannomyces tritici; test: Antifungal activity against sithiofam-resistant Gaeumannomyces graminis var. tritici isolate HN13 expressing C1 genetic cluster assessed as reduction in fungal colony diameter after 4 days; details: isolate HN13, 96 h
[11] = system: Gaeumannomyces tritici; test: Antifungal activity against sithiofam-resistant Gaeumannomyces graminis var. tritici isolate HN12 expressing C1 genetic cluster assessed as reduction in fungal colony diameter after 4 days; details: isolate HN12, HN12, 96 h
[12] = system: Gaeumannomyces tritici; test: Antifungal activity against sithiofam-resistant Gaeumannomyces graminis var. tritici isolate HN10 expressing C1 genetic cluster assessed as reduction in fungal colony diameter after 4 days; details: isolate HN10, 96 h
[13] = system: Gaeumannomyces tritici; test: Antifungal activity against sithiofam-resistant Gaeumannomyces graminis var. tritici isolate HN08 expressing C1 genetic cluster assessed as reduction in fungal colony diameter after 4 days; details: isolate HN08, 96 h
[14] = system: Gaeumannomyces tritici; test: Antifungal activity against sithiofam-resistant Gaeumannomyces graminis var. tritici isolate HN02 expressing C1 genetic cluster assessed as reduction in fungal colony diameter after 4 days; details: isolate HN02, 96 h
[15] = system: Gaeumannomyces tritici; test: Antifungal activity against sithiofam-sensitive Gaeumannomyces graminis var. tritici isolate AH08 expressing C2 genetic cluster assessed as reduction in fungal colony diameter after 4 days; details: isolate AH08, 96 h
[16] = system: Gaeumannomyces tritici; test: Antifungal activity against sithiofam-resistant Gaeumannomyces graminis var. tritici isolate HN16 expressing C1 genetic cluster assessed as reduction in fungal colony diameter after 4 days; details: isolate HN16, 96 h
[17] = system: Gaeumannomyces tritici; test: Antifungal activity against sithiofam-sensitive Gaeumannomyces graminis var. tritici isolate AH07 expressing C2 genetic cluster assessed as reduction in fungal colony diameter after 4 days; details: isolate AH07, 96 h
[18] = system: Gaeumannomyces tritici; test: Antifungal activity against sithiofam-resistant Gaeumannomyces graminis var. tritici isolate AH06 expressing C1 genetic cluster assessed as reduction in fungal colony diameter after 4 days; details: isolate AH06, 96 h
[19] = system: Gaeumannomyces tritici; test: Antifungal activity against sithiofam-sensitive Gaeumannomyces graminis var. tritici isolate AH04 expressing C2 genetic cluster assessed as reduction in fungal colony diameter after 4 days; details: isolate AH04, 96 h
[20] = system: Gaeumannomyces tritici; test: Antifungal activity against sithiofam-sensitive Gaeumannomyces graminis var. tritici isolate AH03 expressing C2 genetic cluster assessed as reduction in fungal colony diameter after 4 days; details: isolate AH03, 96 h
[21] = system: Gaeumannomyces tritici; test: Antifungal activity against sithiofam-sensitive Gaeumannomyces graminis var. tritici isolate SD06 expressing C2 genetic cluster assessed as reduction in fungal colony diameter after 4 days; details: isolate SD06, 96 h
[22] = system: Gaeumannomyces tritici; test: Antifungal activity against sithiofam-sensitive Gaeumannomyces graminis var. tritici isolate SD05 expressing C2 genetic cluster assessed as reduction in fungal colony diameter after 4 days; details: isolate SD05, 96 h
[23] = system: Gaeumannomyces tritici; test: Antifungal activity against sithiofam-sensitive Gaeumannomyces graminis var. tritici isolate SD03 expressing C2 genetic cluster assessed as reduction in fungal colony diameter after 4 days; details: isolate SD03, 96 h
[24] = system: Gaeumannomyces tritici; test: Antifungal activity against sithiofam-sensitive Gaeumannomyces graminis var. tritici isolate SD02 expressing C2 genetic cluster assessed as reduction in fungal colony diameter after 4 days; details: isolate SD02, 96 h
[25] = system: Gaeumannomyces tritici; test: Antifungal activity against sithiofam-resistant Gaeumannomyces graminis var. tritici isolate AH13 expressing C1 genetic cluster assessed as reduction in fungal colony diameter after 4 days; details: isolate AH13, 96 h
[26] = system: Gaeumannomyces tritici; test: Antifungal activity against sithiofam-sensitive Gaeumannomyces graminis var. tritici isolate AH12 expressing C2 genetic cluster assessed as reduction in fungal colony diameter after 4 days; details: isolate AH12, 96 h
[27] = system: Gaeumannomyces tritici; test: Antifungal activity against sithiofam-sensitive Gaeumannomyces graminis var. tritici isolate AH11 expressing C2 genetic cluster assessed as reduction in fungal colony diameter after 4 days; details: isolate AH11, 96 h
[28] = system: Gaeumannomyces tritici; test: Antifungal activity against sithiofam-sensitive Gaeumannomyces graminis var. tritici isolate HN32 expressing C2 genetic cluster assessed as reduction in fungal colony diameter after 4 days; details: isolate HN32, 96 h
[29] = system: Gaeumannomyces tritici; test: Antifungal activity against sithiofam-sensitive Gaeumannomyces graminis var. tritici isolate HN31 expressing C3 genetic cluster assessed as reduction in fungal colony diameter after 4 days; details: isolate HN31, 96 h

| SMILES | EC50 [1] [µg/mL] | EC50 [2] [µg/mL] | EC50 [3] [µg/mL] | EC50 [4] [µg/mL] | EC50 [5] [µg/mL] | EC50 [6] [µg/mL] | EC50 [7] [µg/mL] | EC50 [8] [µg/mL] | EC50 [9] [µg/mL] | EC50 [10] [µg/mL] | EC50 [11] [µg/mL] | EC50 [12] [µg/mL] | EC50 [13] [µg/mL] | EC50 [14] [µg/mL] | EC50 [15] [µg/mL] | EC50 [16] [µg/mL] | EC50 [17] [µg/mL] | EC50 [18] [µg/mL] | EC50 [19] [µg/mL] | EC50 [20] [µg/mL] | also measured |
| --- | --- | --- | --- | --- | --- | --- | --- | --- | --- | --- | --- | --- | --- | --- | --- | --- | --- | --- | --- | --- | --- |
| CC1COC(Cn2cncn2)(c2ccc(Oc3ccc(Cl)cc3)cc2Cl)O1 (stereo not drawn) [DIFENOCONAZOLE] | 0.163 (≈ 0.4 µM) | 0.121 (≈ 0.299 µM) | 0.116 (≈ 0.287 µM) | 0.313 (≈ 0.771 µM) | 0.569 (≈ 1.4 µM) | 0.0604 (≈ 0.149 µM) | 0.366 (≈ 0.902 µM) | 0.111 (≈ 0.274 µM) | 0.0553 (≈ 0.136 µM) | 0.223 (≈ 0.548 µM) | 0.588 (≈ 1.45 µM) | 0.375 (≈ 0.923 µM) | 0.216 (≈ 0.533 µM) | 0.236 (≈ 0.58 µM) | 0.019 (≈ 0.0468 µM) | 1.01 (≈ 2.49 µM) | 0.539 (≈ 1.33 µM) | 0.24 (≈ 0.59 µM) | 0.668 (≈ 1.64 µM) | 0.401 (≈ 0.988 µM) | EC50 [21]: 0.18 µg/mL (≈ 0.443 µM); EC50 [22]: 0.694 µg/mL (≈ 1.71 µM); EC50 [23]: 0.53 µg/mL (≈ 1.31 µM); EC50 [24]: 0.335 µg/mL (≈ 0.825 µM); EC50 [25]: 0.288 µg/mL (≈ 0.708 µM); EC50 [26]: 0.154 µg/mL (≈ 0.38 µM); EC50 [27]: 0.129 µg/mL (≈ 0.317 µM); EC50 [28]: 0.359 µg/mL (≈ 0.885 µM); EC50 [29]: 0.283 µg/mL (≈ 0.697 µM) |
| CC(C)(C)C(O)(CCc1ccc(Cl)cc1)Cn1cncn1 (stereo not drawn) [TEBUCONAZOLE] | 0.051 (≈ 0.166 µM) | 0.0742 (≈ 0.241 µM) | 0.0274 (≈ 0.089 µM) | 0.103 (≈ 0.334 µM) | 0.104 (≈ 0.338 µM) | 0.18 (≈ 0.584 µM) | 0.0722 (≈ 0.235 µM) | 0.0472 (≈ 0.153 µM) | 0.039 (≈ 0.127 µM) | 0.0689 (≈ 0.224 µM) | 0.076 (≈ 0.247 µM) | 0.0691 (≈ 0.224 µM) | 0.057 (≈ 0.185 µM) | 0.0364 (≈ 0.118 µM) | 0.0489 (≈ 0.159 µM) | 0.0599 (≈ 0.195 µM) | 0.0647 (≈ 0.21 µM) | 0.0283 (≈ 0.0919 µM) | 0.231 (≈ 0.752 µM) | 0.0622 (≈ 0.202 µM) | EC50 [21]: 0.0646 µg/mL (≈ 0.21 µM); EC50 [22]: 0.0688 µg/mL (≈ 0.224 µM); EC50 [23]: 0.0983 µg/mL (≈ 0.319 µM); EC50 [24]: 0.0575 µg/mL (≈ 0.187 µM); EC50 [25]: 0.302 µg/mL (≈ 0.981 µM); EC50 [26]: 0.0416 µg/mL (≈ 0.135 µM); EC50 [27]: 0.0395 µg/mL (≈ 0.128 µM); EC50 [28]: 0.238 µg/mL (≈ 0.772 µM); EC50 [29]: 0.111 µg/mL (≈ 0.362 µM) |
